This note sets out measurements from ChEMBL document CHEMBL5728688, “Substituted pyridines as TYK2 inhibitors” (2021).

The target of the experiment is Non-receptor tyrosine-protein kinase TYK2 (Homo sapiens, UniProt P29597). Nature of the experiment: TYK2 JH2 Domain Binding Assay: DiscoverX's KINOMEscan™ is a popular platform for kinase profiling, frequently used in academic and industry witnessed by publications, therefore we selected this platform as a primary cell-free screening assay to determine the relative binding potency and guide chemistry SAR.Developed by DiscoverX, KINOMEscan™ employs proprietary active-site dependent competition binding assays to determine how compounds bind to kinases. KINOMEscan™ is based on a competition binding assay that quantitatively measures the ability of a compound to compete with an immobilized, active site directed ligand. The assay is performed by combining three components: DNA-tagged kinase; immobilized ligand; and a test compound. […] The liganded beads were blocked with excess biotin and washed with blocking buffer (SeaBlock (Pierce), 1% BSA, 0.05% Tween 20, 1 mM DTT) to remove unbound ligand and to reduce non-specific binding. […] Test compounds were prepared as 111× stocks in 100% DMSO. All test compounds were shipped to DiscoverX in DMSO with concentration of 10 mM. […] Each compound was tested in duplicate. […] The compounds were then diluted directly into the assays such that the final concentration of DMSO was 0.9%. All reactions performed in polypropylene 384-well plate. Each was a final volume of 0.02 ml. […] […].
Sequence of Non-receptor tyrosine-protein kinase TYK2 (P29597 whole entry, the tested form may be a part): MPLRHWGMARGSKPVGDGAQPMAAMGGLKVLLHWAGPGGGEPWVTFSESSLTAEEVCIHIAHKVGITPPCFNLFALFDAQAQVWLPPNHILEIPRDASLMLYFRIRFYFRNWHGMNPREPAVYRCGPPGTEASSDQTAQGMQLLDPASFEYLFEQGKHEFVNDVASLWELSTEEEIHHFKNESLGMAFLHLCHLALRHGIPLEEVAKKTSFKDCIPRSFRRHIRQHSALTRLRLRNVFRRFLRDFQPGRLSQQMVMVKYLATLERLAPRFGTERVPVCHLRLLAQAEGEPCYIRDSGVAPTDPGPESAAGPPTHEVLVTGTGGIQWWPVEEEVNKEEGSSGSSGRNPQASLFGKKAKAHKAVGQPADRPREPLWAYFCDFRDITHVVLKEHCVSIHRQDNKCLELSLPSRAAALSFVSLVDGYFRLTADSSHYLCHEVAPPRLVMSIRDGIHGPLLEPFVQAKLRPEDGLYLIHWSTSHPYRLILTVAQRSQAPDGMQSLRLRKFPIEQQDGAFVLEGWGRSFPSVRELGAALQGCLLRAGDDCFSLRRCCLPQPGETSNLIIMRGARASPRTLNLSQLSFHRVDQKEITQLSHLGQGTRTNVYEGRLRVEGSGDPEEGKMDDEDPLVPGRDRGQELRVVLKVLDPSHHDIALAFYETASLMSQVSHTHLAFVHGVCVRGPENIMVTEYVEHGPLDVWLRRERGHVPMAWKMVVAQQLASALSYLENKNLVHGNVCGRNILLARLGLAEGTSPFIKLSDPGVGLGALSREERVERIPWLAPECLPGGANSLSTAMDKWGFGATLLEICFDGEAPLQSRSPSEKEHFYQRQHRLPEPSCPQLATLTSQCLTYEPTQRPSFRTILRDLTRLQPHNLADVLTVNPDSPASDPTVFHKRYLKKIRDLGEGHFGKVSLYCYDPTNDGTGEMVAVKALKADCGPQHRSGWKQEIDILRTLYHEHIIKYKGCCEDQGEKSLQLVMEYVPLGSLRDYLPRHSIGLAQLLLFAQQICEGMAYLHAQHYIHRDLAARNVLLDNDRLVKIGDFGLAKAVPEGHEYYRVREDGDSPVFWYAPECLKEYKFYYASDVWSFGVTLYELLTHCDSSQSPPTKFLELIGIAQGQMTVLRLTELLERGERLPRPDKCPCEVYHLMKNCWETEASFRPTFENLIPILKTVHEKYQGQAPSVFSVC

Molecules are shown by their SMILES.

As to `CNC(=O)c1nnc(N2CCC(C)(C)C2=O)cc1Nc1cccc(-c2ncn(C)n2)c1OC`, the Kd (usually the equilibrium constant for the complex coming apart) is under 1 nM.
